From patent publication US20260216138A1, “IDENTIFICATION OF OTUD7B INHIBITOR 7BI AND ITS APPLICATION IN REDUCING GROWTH OF NSCLC AND LEUKEMIA CELLS” (The University of North Carolina at Chapel Hill, priority 2023, published 2026) come the findings set out here.

Molecules are shown by their SMILES. Entries after “also recorded” stand apart in the source; their conditions may differ.

The target of one test is T1, OTUD7B (Homo sapiens, UniProt Q6GQQ9).
T1 construct: OTUD7B (residues 56-446); GST (N, cleaved yes); made in house; host or cells: E. coli BL21-Codon Plus (DE3)-RIL
T1 sequence (Q6GQQ9 56-446): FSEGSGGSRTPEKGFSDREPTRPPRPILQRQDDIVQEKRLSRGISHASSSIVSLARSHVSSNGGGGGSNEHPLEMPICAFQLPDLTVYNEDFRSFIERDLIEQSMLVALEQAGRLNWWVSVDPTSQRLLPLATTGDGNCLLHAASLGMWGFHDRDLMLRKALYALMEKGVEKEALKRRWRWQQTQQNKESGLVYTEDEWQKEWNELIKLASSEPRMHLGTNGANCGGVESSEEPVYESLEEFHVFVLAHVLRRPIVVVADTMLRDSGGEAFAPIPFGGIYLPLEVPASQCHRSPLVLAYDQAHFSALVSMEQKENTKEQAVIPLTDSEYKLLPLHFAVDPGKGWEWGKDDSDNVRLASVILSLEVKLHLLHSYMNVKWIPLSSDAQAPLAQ
Description: In vitro OTUD7B deubiquitination assay, K11-linked di-ub cleavage. It counts as biochemical. The source says:
OTUD7B (residues 56-446), OTUD7A (residues 1-462), USP21 (residues 196-565), and USP9X (residues 1551-1970) proteins were expressed in E. Coli BL21-Codon Plus (DE3)-RIL cells. Through an N-terminal GST tag, the DUBs were purified by affinity chromatography using glutathione sepharose 4B (GS4B) resin. Following the liberation of the DUB from the GST tag. the DUBs were subjected to size exclusion chromatography (SEC). To form the K11-linked di-ub, individual ubiquitins (K11R-substituted donor Ub and ΔGG acceptor ubiquitin) were purified and fluorescently-labeled on an N-terminal cysteine using either Cy3- (donor) or Cy5-maleimide (acceptor). The different ubiquitins were then added to a mixture containing UBA1, UBE2S, and MgATP to form di-ub. After an overnight incubation at room temperature, UBE2S was removed by cation-exchange chromatography and the di-ub was purified by SEC. These proteins were used to monitor DUB activity in the presence or absence of the various inhibitors. The inhibitors were incubated with DUBs in a reaction buffer (20 mM Hepes pH=8.0, 200 mM NaCl, 0.25 mg/mL BSA and 0.005% Tween-20) for 5 min at room temperature and then 0.5 uM fluorescently-labeled di-ub (K11-linked) was added to start the reaction. 5×SDS-PAGE loading buffer was used to quench the reaction at the indicated time point. […] Mono-ubiquitin was quantified to generate an IC50 value. […]

In a further test the test system is H520 cells. Description: Colony formation / growth of H520 cells. It counts as cell-based. The note with it: treated once for 10 days. Here is the method:
500 cells from OTUD7B depleted A549 cells were seeded into each well of 6-well plates and cultured in the 37° C. incubator with 5% CO2 for 10-15 days until formation of visible colonies. Triplicates were performed. To test the effect of a given inhibitor on colony formation ability, 800 cells from A549, H520 and H1299 cell lines were seeded into each well of 6-well plates, respectively. Each inhibitor was added at indicated concentration the next day. Colonies were counted after 10 days of treatment. The colony staining method was as described. […] Colony numbers were counted manually. […]
2,000 cells from indicated NSLC cell lines were seeded into each well of 96-well plates. Cell viability was measured 3 days post-treatment using MTT assays following manufacturer's instruction. […] Inhibitor was added the next day at indicated concentration and cell viability was measured after 3-day treatment. For cell proliferation assays in THP1, K562 and HL60 cell lines, 1×10^6 cells from each indicated cell line were seeded in 12.5 cm2 cell culture flask and cells were counted by hemocytometer under microscope at indicated time to monitor cell proliferation. […] Inhibitor was added the next day at indicated concentrations and cell number was counted after 3 days treatment. […]

In test [1] the test system is OTUD7B-induced GβL deubiquitination. Briefly: In-cell GβL ubiquitination assay (Ni-NTA pulldown, HEK293 cells). It counts as cell-based. The note with it: HEK293 cells transfected with DNA constructs, compound for 16 hrs; listed as #19. The protocol: FIGS. 2A-2L show results of validation for OTUD7B small molecule inhibitors in cells. (A-D) IB analyses of WCL from indicated NSCLC cells treated with […] of indicated compounds for 16 hrs. (E, F) IB analyses of WCL from either A549 (E) or HEK293 (F) cells treated with indicated doses of compound #19 for 16 hrs. (G) IB analyses of Ni-NTA pulldowns and WCL from HEK293 cells transfected with indicated DNA constructs. Where indicated, cells were treated with […] of indicated compounds for 16 hrs before cell collection. (H-L) Quantifications of cell viability by MTT assays in A549 cells treated with indicated doses of indicated compounds for 72 hrs. Error bars were calculated as mean+/−SD, n=3. *p<0.05 (one-way ANOVA test).

What is called IC50 is the point on the concentration scale where inhibition reaches its midpoint.

Take `Cc1cc(NC(=O)c2cnn(C)c2C(=O)Nc2cc(C)nn2C2CCCC2)n(C2CCCC2)n1` [7Bi]: on OTUD7B (0.5 uM K11-diub and 5 nM active OTUD7B, 10 min, read-out: IC50, OTUD7B catalytic activity), the IC50 was approximately 40 µM. Moreover, the “suppression of OTUD7B-mediated K11-diub cleavage by purified 7Bi” value on OTUD7B (HPLC purified 7Bi (~99% purity) compared with 90% purity) is recorded as “retained its ability to suppress OTUD7B-mediated K11-diub cleavage in vitro”. Further, in the test with H520 cells, the cell growth entry is given as “reduced growth”. For the same compound, the “blocking OTUD7B-induced GβL deubiquitination in cells” value in test [1] was “partially blocked OTUD7B-induced GβL deubiquitination; also recorded: able to block OTUD7B-mediated GβL deubiquitination in cells”.
